In paper PMC12093266, “Synergistic action of two radical SAM enzymes in the biosynthesis of thuricin CD, a two-component sactibiotic” (Chemical Science, 2025):
Numbered stars: 1 amine (or outer) side, 2 acyl side, 3 side chain; on linkers, the order of the positions; unused ones are H or OH. Bridge positions count the residues as written; N and C are the ends. Square brackets hold non-standard residues; d marks the D form. Peptide text beside a SMILES is read from it. X3 = O=C([C@@](Cc1ccc(O)cc1)(N[*:1])[*:3])[*:2]; X5 = C[C@@H](O)[C@@](N[*:1])(C(=O)[*:2])[*:3]; X1 = C[C@@H](O)[C@](N[*:1])(C(=O)[*:2])[*:3]; X4 = O=C([C@](CO)(N[*:1])[*:3])[*:2]; X2 = C[C@](N[*:1])(C(=O)[*:2])[*:3]

Assays:
Bacillus cereus [1] = experiment: Disk diffusion susceptibility test; format: cell-based; conditions: 5 μL of 100 μM peptide (each) on filter paper, BHI agar, 30 °C, 15-20 h
Procedure: In vitro susceptibility test
Briefly, the liquid Brain Heart Infusion (BHI) agar (3.2 % BHI, 1.5% agar) was cooled to 42 °C and seeded with 100 μL of dense overnight culture (approximately 10 8-109 CFU mL -1) of Bacillus cereus. […] Kanamycin and 30% isopropanol were used
Spot 4: 5 μL 0.1 mg/ml kanamycin; Spot 5: 5 μL 30% isopropanol.

Bacillus cereus [2] = format: cell-based; conditions: B. cereus in LB, 96-well plate, serial dilution, 30 °C, 16 h, OD600; lowest concentration with <10% OD increase over kanamycin well; HPLC-purified peptides in 30% isopropanol; '>' = no inhibition observed at that concentration
Procedure: To test whether the thuricin CD variant obtained in E. coli was bioactive, we performed disk diffusion susceptibility tests with trnα′ and trnβ′ using Bacillus cereus as a test strain. […]
the elution fraction (1: 200 (v/v) ratio), and the resulting solution was then kept overnight for digestion at 4 °C. The resulting solution was heat-inactivated at 95 °C for 10 min followed by freezing at -80 °C for 1 h, and was subjected to centrifugation (13000 × g for 15 min at 4 °C) to remove any precipitates. The resulting solutions containing TrnA or TrnB were directly used in downstream analysis or frozen at -80 °C […]
Production of trnα’ and trnβ’
The modified TrnA and TrnB solutions were mixed with GluC (2 mg/ml stock solution) in a 50:1 (v/v) ratio and the proteolytic reaction was proceeded at room temperature for 2hr. The reaction mixture was subsequently quenched by methanol, and was lyophilized after centrifugation to remove any protein precipitate. The resulting sample was then dissolved in 30% isopropanol and injected onto a reverse phase Phenomenex Aeris PEPTIDE XB-C18 column (250 x 10 mm, 5 μm). […]
as a positive and negative controls, respectively. […] The OD600 was read on a SP-Max 2300A plate reader. […]

Compound	inhibition in disk diffusion test (Bacillus cereus [1])	minimal inhibition concentration (MIC) (Bacillus cereus [2])
CC[C@H](C)[C@H](N)C(=O)NCC(=O)NCC(=O)N[C@@H](CC(N)=O)C(=O)N[C@@H](C)C(=O)N[C@@H](C)C(=O)N[C@H]1CS[C@](C(=O)N[C@@H](CC(C)C)C(=O)NCC(=O)O)([C@@H](C)O)NC(=O)[C@H](Cc2ccccc2)NC(=O)[C@H](C)NC(=O)[C@]2([C@@H](C)O)NC(=O)CNC(=O)[C@H](C(C)C)NC(=O)[C@H](CC(C)C)NC(=O)[C@]3(CO)NC(=O)CNC(=O)[C@H]([C@@H](C)CC)NC(=O)CNC(=O)[C@H](CCC(=O)O)NC(=O)[C@H](CO)NC(=O)[C@H]([C@@H](C)CC)NC(=O)[C@H](C(C)C)NC(=O)[C@H](CS3)NC(=O)[C@H](CO)NC(=O)CNC(=O)[C@H]([C@@H](C)CC)NC(=O)[C@H](CS2)NC(=O)CNC(=O)[C@H]([C@@H](C)CC)NC(=O)[C@H](C(C)C)NC1=O [trnα′] (H-IGGNAACVIGCIGSCVISEGIG[X4]LVG[X1]AF[X5]LG-OH; thioether 7-30, 11-27, 15-23; N-terminus and C-terminus assumed)	no activity	> 50 µM
CC(C)C[C@H](NC(=O)[C@H](Cc1ccccc1)NC(=O)[C@@]1(Cc2ccc(O)cc2)NC(=O)[C@H](CO)NC(=O)[C@H](C)NC(=O)[C@]2(C)NC(=O)[C@H](C)NC(=O)[C@H](Cc3ccccc3)NC(=O)[C@H](CCC(=O)O)NC(=O)[C@]3([C@@H](C)O)NC(=O)CNC(=O)[C@H](C(C)C)NC(=O)CNC(=O)CNC(=O)[C@H](CO)NC(=O)[C@H](C)NC(=O)[C@H](CC(C)C)NC(=O)[C@H](CS3)NC(=O)[C@H](C(C)C)NC(=O)[C@H]([C@@H](C)O)NC(=O)CNC(=O)[C@H](CS2)NC(=O)[C@H](C)NC(=O)CNC(=O)[C@H](C(C)C)NC(=O)[C@@H](NC(=O)[C@H](C)NC(=O)[C@@H](NC(=O)[C@H](Cc2c[nH]c3ccccc23)NC(=O)CNC(=O)CNC(=O)[C@@H](N)C(C)C)C(C)C)CS1)C(=O)O [trnβ′] (H-VGGWVACVGACGTVCLASGGVG[X1]EFA[X2]AS[X3]FL-OH; thioether 7-30, 11-27, 15-23; N-terminus and C-terminus assumed)	no activity	> 50 µM
